The text below walks through data of the supplement of paper PMC7021759.

For the assay, the system named is SK-N-MM (SKNMM-MYCN, doxycycline-inducible MYCN). Description: area under dose-response curve (CellTiter-Glo viability normalised to plate controls) (AUC (arbitrary units)); higher = more loss of viability; extreme values may be limits of the assay. In short, it runs like this:
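SK-N-MM cells carrying doxycycline-inducible MYCN were seeded in 96-well plates at 1250 cells/100 μL, and about 24 h later they received medium with or without doxycycline. Two days after that, 10-point 1:3 dilution series of compounds were added by pin transfer (890-fold dilution of stock), with a second dose on day 4. CellTiter-Glo luminescence was measured 3 or 8 days after drugging. Log2 signals were scaled against the positive and negative controls on each plate and used to calculate the area under the dose-response curve.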
(In general: Cellular ATP, detected with luciferase, serves as a proxy for viable cell number.)

Where [1] appears, read: MYCN induction (doxycycline): +doxycycline (MYCN induced), time after drugging: 3 days.
Where [2] appears, read: MYCN induction (doxycycline): +doxycycline (MYCN induced), time after drugging: 8 days.
[3] abbreviates: MYCN induction (doxycycline): no doxycycline (MYCN not induced), time after drugging: 3 days.
Setting [4] is: MYCN induction (doxycycline): no doxycycline (MYCN not induced), time after drugging: 8 days.

± gives the standard deviation of the averaged measurements.

For `COc1cc2c(Oc3ccc(NC(=O)C4(C(=O)Nc5ccc(F)cc5)CC4)cc3F)ccnc2cc1OCCCN1CCOCC1` [FORETINIB], the “area under dose-response curve” value runs as follows: under setting [1], 167; under setting [2], 170; under setting [3], 144; under setting [4], 140.
With `CN(C)C/C=C/C(=O)Nc1ccc(C(=O)Nc2cccc(Nc3ncc(Cl)c(-c4c[nH]c5ccccc45)n3)c2)cc1` [THZ1], the “area under dose-response curve” value is, setting by setting: under setting [1], 102; under setting [2], 240; under setting [3], 51.7; under setting [4], 190.
For `NC1(c2ccc(-c3nc4ccn5c(=O)[nH]nc5c4cc3-c3ccccc3)cc2)CCC1` [MK-2206], the “area under dose-response curve” value reads like this: under setting [2], 0; under setting [3], 81.6; under setting [4], 149.
For the molecule `O=C(CCCCCCC(=O)Nc1ccccc1)NO` [VORINOSTAT], the “area under dose-response curve” value was 78.4 under setting [1], 191 under setting [2], 58.2 under setting [3] and 145 under setting [4].
`Cc1cc(C2CCCCC2)n(O)c(=O)c1` [CICLOPIROX]: the “area under dose-response curve” value reads like this: under setting [1], 0; under setting [2], 97.9; under setting [3], 15.5; under setting [4], 41.6.
For `CC(C)c1cc(-c2n[nH]c(=O)n2-c2ccc3c(ccn3C)c2)c(O)cc1O` [GANETESPIB] the same measures were 169, 378, 202 and 398.
As for `CC(=O)c1c(C)c2cnc(Nc3ccc(N4CCNCC4)cn3)nc2n(C2CCCC2)c1=O` [PALBOCICLIB], the “area under dose-response curve” value came out at 0 under setting [1], 78.6 under setting [2], 0 under setting [3] and 65.5 under setting [4].
Take `Nc1cc(C(F)(F)F)c(-c2cc(N3CCOCC3)nc(N3CCOCC3)n2)cn1` [BUPARLISIB]: the “area under dose-response curve” value stood at 91.8 under setting [1], 150 under setting [2], 65.7 under setting [3] and 86.9 under setting [4].
For `NC(=O)Nc1cc(-c2cccc(F)c2)sc1C(=O)N[C@H]1CCCNC1` [AZD-7762], the “area under dose-response curve” value runs as follows: under setting [1], 139; under setting [2], 244; under setting [3], 75.8; under setting [4], 141.
For `O=C(Nc1ccccc1-c1cn2c(CN3CCNCC3)csc2n1)c1cnc2ccccc2n1` [SRT1720] the same measures were 187, 220, 0.00298 and 213.
`Nc1ncn([C@H]2C[C@H](O)[C@@H](CO)O2)c(=O)n1` [DECITABINE]: the “area under dose-response curve” value by setting is: under setting [1], 4.2; under setting [2], 169; under setting [3], 0.521; under setting [4], 67.4.
The like results for `CO[C@H]1C(=O)[C@]2(C)[C@@H](OC)C[C@H]3OC[C@@]3(OC(C)=O)[C@H]2[C@H](OC(=O)c2ccccc2)[C@]2(O)C[C@H](OC(=O)[C@H](O)[C@@H](NC(=O)OC(C)(C)C)c3ccccc3)C(C)=C1C2(C)C` [CABAZITAXEL] were, in that order, 195, 350, 140 and 225.
The like results for `CCc1c2c(nc3ccc(O)cc13)-c1cc3c(c(=O)n1C2)COC(=O)[C@]3(O)CC` [SN-38] were, in that order, 152 ± 8.4, 295 ± 33, 67.4 ± 16 and 181 ± 37.
The like results for `Cc1[nH]c2ccccc2c1CCNCc1ccc(/C=C/C(=O)NO)cc1` [PANOBINOSTAT] were, in that order, 171 ± 12, 306 ± 5.3, 114 ± 27 and 287 ± 4.4.
Consider `CO[C@H]1C[C@@H]2CC[C@@H](C)[C@@](O)(O2)C(=O)C(=O)N2CCCC[C@H]2C(=O)O[C@H]([C@H](C)C[C@@H]2CC[C@@H](O)[C@H](OC)C2)CC(=O)[C@H](C)/C=C(\C)[C@@H](O)[C@@H](OC)C(=O)[C@H](C)C[C@H](C)/C=C/C=C/C=C/1C` [SIROLIMUS], for which the “area under dose-response curve” value under setting [1] stood at 18.2, the “area under dose-response curve” value under setting [2] came out at 7.23, the “area under dose-response curve” value under setting [3] is 41.5 and the “area under dose-response curve” value under setting [4] was 24.7.
For `Nc1nc2[nH]cc(CCc3ccc(C(=O)N[C@@H](CCC(=O)O)C(=O)O)cc3)c2c(=O)[nH]1` [PEMETREXED] the same measures were 6.04, 112, 0 and 58.3.
On to `CCC(=O)OCN1C(=O)C=CC1=O` [MIRA-1], for which, under setting [4], the “area under dose-response curve” value was 39.
Turning to `C[C@H]1[C@H](OC(=O)CCC(=O)O)O[C@@H]2O[C@@]3(C)CC[C@H]4[C@H](C)CC[C@@H]1[C@@]24OO3` [ARTESUNATE], the “area under dose-response curve” value under setting [1] amounted to 46.2, the “area under dose-response curve” value under setting [2] was 60, the “area under dose-response curve” value under setting [3] stood at 25.7 and the “area under dose-response curve” value under setting [4] came to 25.9.
On to `CN(C)C/C=C/C(=O)Nc1cc2c(Nc3ccc(F)c(Cl)c3)ncnc2cc1O[C@H]1CCOC1` [AFATINIB], for which the “area under dose-response curve” value is, setting by setting: under setting [1], 137; under setting [2], 145; under setting [3], 140; under setting [4], 121.
For the molecule `CN[C@@H]1C[C@H]2O[C@@](C)([C@@H]1OC)n1c3ccccc3c3c4c(c5c6ccccc6n2c5c31)C(=O)N[C@H]4O` [7-HYDROXYSTAUROSPORINE], the “area under dose-response curve” value reads like this: under setting [1], 204; under setting [2], 290; under setting [3], 144; under setting [4], 249.
In the case of `O=C(Nc1ccc(Nc2nccc(Nc3cc(C4CCCC4)[nH]n3)n2)cc1)Nc1cccc(C(F)(F)F)c1` [CD532], the “area under dose-response curve” value under setting [1] amounted to 175, the “area under dose-response curve” value under setting [2] is 211, the “area under dose-response curve” value under setting [3] stood at 156 and the “area under dose-response curve” value under setting [4] turned out to be 191.
For `CS(=O)(=O)c1ccc(-c2cnc(N)c(C(=O)Nc3ccccc3)n2)cc1` [VE-821] the same measures were 41.9, 75.9, 8.07 and 32.
For the molecule `Cc1cc(Nc2ncc(Cl)c(Nc3ccccc3S(=O)(=O)C(C)C)n2)c(OC(C)C)cc1C1CCNCC1` [CERITINIB], the “area under dose-response curve” value under setting [1] is 175, the “area under dose-response curve” value under setting [2] was found to be 168, the “area under dose-response curve” value under setting [3] came to 172 and the “area under dose-response curve” value under setting [4] amounted to 170.
Consider `COC(=O)[C@]12CCC(C)(C)C[C@H]1[C@H]1C(=O)C=C3[C@@]4(C)C=C(C#N)C(=O)C(C)(C)[C@@H]4CC[C@@]3(C)[C@]1(C)CC2` [BARDOXOLONE METHYL], for which the “area under dose-response curve” value by setting is: under setting [1], 212; under setting [2], 243; under setting [3], 216; under setting [4], 226.
For `Cn1ncnc1[C@H]1c2n[nH]c(=O)c3cc(F)cc(c23)N[C@@H]1c1ccc(F)cc1` [TALAZOPARIB] the same measures were 48.2 ± 12, 183 ± 40, 29.3 ± 20 and 78.2 ± 25.
